Tests used:
[1] = test system: U138-MG glioblastoma cell line; assay: MTT cell proliferation assay, U138-MG; type: cell-based; settings: for inhibition at 10 µM / IC50 / activity at 10 µM: Homo sapiens; for inhibition at 10 µM: read-out: cell inhibition percentage (activity); for IC50 / activity at 10 µM: MTT; for IC50: 0–160 μM; for activity at 10 µM: compound 10 μM, 48 h, read-out: Cell Proliferation ± Std dev. (%) U138
Procedure: (§1) U87-MG (HTB-16) and U138-MG (HTB-14) lines were purchased from ATCC. The cells were cultured in DMEM-HG Medium (41966-029, Gibco, Grand Island, NE, USA) and supplemented with 10% fetal bovine serum (FBS, 10500-064, Gibco) and 1% Penicillin–Streptomycin (P/S, 15140-122, Gibco). After 24 h of seeding cells, all compounds dissolved in 0.4% dimethyl sulfoxide (DMSO, A3672-0250, AppliChem, Darmstadt, Germany) were treated in the cells.
The proliferation effects of the drug candidates on the U87-MG and U138-MG cell lines were tested using the MTT (3-(4,5-dimethylthiazol-2-yl)-2,5-diphenyltetrazolium bromide) assay. A total of 7 × 10^3 cells per well of both U87-MG and U138-MG cells were seeded into a 96-well plate in triplicate for the assay. […] After the incubation period, 10 μL of MTT solution (5 mg/mL in PBS) was added to each well. The MTT solution was aspirated from the wells after 2 h. Then, 100 μL of DMSO was added and mixed to dissolve the formazan crystals. Cell proliferation was analysed by measuring the absorbance of the dissolved formazan at a wavelength of 570 nm using a microplate reader (Epoch, San Jose, CA, USA). […] Each experiment was carried out in triplicate to ensure reliability and statistical significance.

[2] = PAMPA, GI-mimicking membrane; type: in vitro ADME; settings: class relative to high and low permeability controls
Procedure: (§2) The permeability of the synthesised compounds was evaluated using the parallel artificial membrane permeability assay (PAMPA) to estimate their ability to cross biological membrane mimics of both the gastrointestinal (GI) membrane and the blood–brain barrier (BBB).
(§3) The PAMPA assay (BioAssay System, Hayward, CA 94545, USA) has been used for testing the permeability rates of drugs through the BBB-mimicking membrane. […] The permeability assay was performed for 18 h in a 37 °C incubator.

[3] = PAMPA, BBB-mimicking membrane; type: in vitro ADME; settings: 500 μM, 18 h, 37 °C
Procedure: as §2, §3

[4] = test system: U87-MG glioblastoma cell line; assay: MTT cell proliferation assay, U87-MG; type: cell-based; settings: for activity at 10 µM: compound 10 μM, 48 h, read-out: Cell Proliferation ± Std dev. (%) U87; for IC50: 0–160 μM
Procedure: as §1
The proliferation effects of the drug candidates on the U87-MG and U138-MG cell lines were tested using the MTT (3-(4,5-dimethylthiazol-2-yl)-2,5-diphenyltetrazolium bromide) assay. A total of 7 × 10^3 cells per well of both U87-MG and U138-MG cells were seeded into a 96-well plate in triplicate for the assay. After 24 h, each compound was added at a dose of 10 μM and incubated for 48 h. After the incubation period, 10 μL of MTT solution (5 mg/mL in PBS) was added to each well. The MTT solution was aspirated from the wells after 2 h. Then, 100 μL of DMSO was added and mixed to dissolve the formazan crystals. Cell proliferation was analysed by measuring the absorbance of the dissolved formazan at a wavelength of 570 nm using a microplate reader (Epoch, San Jose, CA, USA). […] Each experiment was carried out in triplicate to ensure reliability and statistical significance.

[5] = equals 100 minus cell proliferation of Table 1 (10 μM, 48 h)

O=C(COc1ccc2c(c1)CCC(=O)N2)N/N=C/c1ccc(Cl)cc1 [4b, (E)-N′-(4-Chlorobenzylidene)-2-((2-Oxo-1,2,3,4-Tetrahydroquinolin-6-Yl) Oxy) Acetohydrazide]
inhibition at 10 µM [1, 5]: 40%

O=C(COc1ccc2c(c1)CCC(=O)N2)NN=Cc1cccs1 [4d, 2-((2-Oxo-1,2,3,4-Tetrahydroquinolin-6-Yl)Oxy)-N′-(Thiophen-2-Ylmethylene)Acetohydrazide]
Permeability through GI-mimicking membrane (class in words) [2]: high permeability

Cc1[nH]c2ccccc2c1/C=N/NC(=O)COc1ccc2c(c1)CCC(=O)N2 [4g, (E)-N′-((2-Methyl-1H-Indol-3-Yl)Methylene)-2-((2-Oxo-1,2,3,4-Tetrahydroquinolin-6-Yl)Oxy)Acetohydrazide]
IC50 [1]: 9.2 µM

CCCc1ccc(/C=N/NC(=O)COc2ccc3c(c2)CCC(=O)N3)cc1 [4h, (E)-2-((2-Oxo-1,2,3,4-Tetrahydroquinolin-6-Yl)Oxy)-N′-(4-Propylbenzylidene)Acetohydrazide]
activity at 10 µM [1]: 100 ± 2.3%
inhibition at 10 µM [1, 5]: 0%
Permeability through BBB-mimicking membrane (class in words) [3]: high permeability

O=C(COc1ccc2c(c1)CCC(=O)N2)N/N=C/c1ccccc1 [4j, (E)-N′-Benzylidene-2-((2-Oxo-1,2,3,4-Tetrahydroquinolin-6-Yl)Oxy)Acetohydrazide]
Permeability through BBB-mimicking membrane (class in words) [3]: high permeability

CN1C(=O)/C(=N\NC(=O)COc2ccc3c(c2)CCC(=O)N3)c2cc(F)ccc21 [4l, (Z)-N′-(5-Fluoro-1-Methyl-2-Oxoindolin-3-Ylidene)-2-((2-Oxo-1,2,3,4-Tetrahydroquinolin-6-Yl)Oxy)Acetohydrazide]
activity at 10 µM [1]: 73 ± 3.6%

O=C(COc1ccc2c(c1)CCC(=O)N2)N/N=C1\C(=O)Nc2ccc(F)cc21 [4m, (Z)-N′-(5-Fluoro-2-Oxoindolin-3-Ylidene)-2-((2-Oxo-1,2,3,4-Tetrahydroquinolin-6-Yl)Oxy)Acetohydrazide]
IC50 [1]: 4.2 µM

O=C(COc1ccc2c(c1)CCC(=O)N2)N/N=C1\C(=O)Nc2ccc([N+](=O)[O-])cc21 [4o, (Z)-N′-(5-Nitro-2-Oxoindolin-3-Ylidene)-2-((2-Oxo-1,2,3,4-Tetrahydroquinolin-6-Yl)Oxy)Acetohydrazide]
cell inhibition percentage (activity) [1, 5]: moderate activity

O=C(COc1ccc2c(c1)CCC(=O)N2)N/N=C/c1cnc(-c2ccc(Cl)cc2)nc1 [4q, (E)-N′-((2-(4-Chlorophenyl)Pyrimidin-5-Yl)Methylene)-2-((2-Oxo-1,2,3,4-Tetrahydroquinolin-6-Yl)Oxy)Acetohydrazide]
activity at 10 µM ([4]; Homo sapiens, U-87 MG): 67 ± 4.9%
IC50 [1]: 8 µM
activity at 10 µM [1]: 39 ± 3%
inhibition at 10 µM [1, 5]: 61%

O=C(COc1ccc2c(c1)CCC(=O)N2)N/N=C/c1ccc(F)cc1 [4s, (E)-N′-(4-Fluorobenzylidene)-2-((2-Oxo-1,2,3,4-Tetrahydroquinolin-6-Yl)Oxy)Acetohydrazide]
Permeability through GI-mimicking membrane (class in words) [2]: high permeability

O=C(COc1ccc2c(c1)CCC(=O)N2)N/N=C/c1cccc(Oc2ccc(Cl)cc2)c1 [4t, (E)-N′-(3-(4-Chlorophenoxy)Benzylidene)-2-((2-Oxo-1,2,3,4-Tetrahydroquinolin-6-Yl)Oxy)Acetohydrazide]
IC50 [4]: 10.5 µM
IC50 ([4]; Homo sapiens, U-87 MG): 10.7 µM
activity at 10 µM ([4]; Homo sapiens, U-87 MG): 50 ± 3.2%
activity at 10 µM [1]: 65 ± 3.5%
Permeability through BBB-mimicking membrane (class in words) [3]: high permeability

O=C(COc1ccc2c(c1)CCC(=O)N2)N/N=C/c1cccc2ccccc12 [4u, (E)-N′-(Naphthalen-1-Ylmethylene)-2-((2-Oxo-1,2,3,4-Tetrahydroquinolin-6-Yl)Oxy)Acetohydrazide]
IC50 ([4]; Homo sapiens, U-87 MG): 7.96 µM

O=C(COc1ccc2c(c1)CCC(=O)N2)N/N=C/c1ccc(-c2ccccc2)cc1 [4v, (E)-N′-([1,1′-Biphenyl]-4-Ylmethylene)-2-((2-Oxo-1,2,3,4-Tetrahydroquinolin-6-Yl)Oxy)Acetohydrazide]
IC50 ([4]; Homo sapiens, U-87 MG): 11.7 µM

O=C(COc1ccc2c(c1)CCC(=O)N2)N/N=C/c1ccc(-c2ccc(Cl)cc2)cc1 [4w, (E)-N′-((4′-Chloro-[1,1′-Biphenyl]-4-Yl)Methylene)-2-((2-Oxo-1,2,3,4-Tetrahydroquinolin-6-Yl)Oxy)Acetohydrazide]
activity at 10 µM ([4]; Homo sapiens, U-87 MG): 63 ± 2.5%
activity at 10 µM [1]: 80 ± 6.9%
inhibition at 10 µM [1, 5]: 20%

Cn1nnc2c(C(N)=O)ncn2c1=O [TMZ, temozolomide, reference compound]
IC50 ([4]; Homo sapiens, U-87 MG): 92.9 µM
activity at 10 µM ([4]; Homo sapiens, U-87 MG): 80 ± 5%
IC50 [1]: 93.1 µM
activity at 10 µM [1]: 78 ± 5%
Permeability through BBB-mimicking membrane (class in words) [3]: lower permeability
Permeability through GI-mimicking membrane (class in words) [2]: lower permeability

From paper PMC11859309, “Design, Synthesis, and Computational Evaluation of 3,4-Dihydroquinolin-2(1H)-One Analogues as Potential VEGFR2 Inhibitors in Glioblastoma Multiforme” (Pharmaceuticals, 2025)
